Like-named read-outs stand apart in the source and are kept apart here.

This note sets out measurements from patent US20250127907A1, “PARP INHIBITORS” (Stablix, Inc., priority 2023, published 2025).

In one assay the test system is HCC1806 cells. The assay can be described thus: Cell proliferation assay (HCC1806). It counts as cell-based. The following applies: 7 days.
Assay [1] concerns Poly/Mono-ADP Ribose in U2OS cells. The assay can be described thus: PAR in cell western assay (parylation) in U2OS cells. The class given is cell-based. The following applies: U2OS cells, 6 hrs, 2 mM H2O2, read-out: Parylation (U2OS). Put shortly:
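U2OS cells treated with compound for 6 h, then 2 mM H2O2 for 10 min to induce DNA damage. After methanol fixation, cells stained overnight at 4 °C with anti-mono/poly-ADP-ribose antibody and imaged by infrared in-cell western, normalized to CellTag 700; reported as % control inhibition.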

Assay [2] concerns the target T1, PARP1 (Homo sapiens, UniProt P09874). As to the kind of experiment: PARP1-enzyme assay (NAD/NADH-Glo biochemical assay). The following applies: recombinant PARP1, NAD+ consumption. On the procedure: The PARP enzyme catalyzes the transfer of ADP-Ribose from NAD+ onto PAR chains/histone substrates. The catalytic cycle is monitored indirectly with the NAD/NADH-Glo Assay kit from Promega. […] NAD+ consumed is determined by comparison to the no enzyme control.
• Recombinant PARP1 • NAD+/NAHD-Glow assay Kit • Activated DNA, 10 μg/mL • NAD+(Nicotinamide Adenine Dinucleotide), 500 nM • Protein substrate for PARP1: Core Histone from chicken, 10 μg/mL
The letter codes for the PARP1-enzyme assay include: A (<1 nM), B (>1-10 nM), C (>10-100 nM), D (>100-1000 nM), E (>1000 nM), and “-” is not tested. The letter codes for the PARP trapping assay, and parylation assay include: A (<10 nM), B (>10-100 nM), C (>100-1000 nM), […], E (>10000 nM), and “-” is not tested.
Target sequence in this assay (P09874 whole entry, species assumed): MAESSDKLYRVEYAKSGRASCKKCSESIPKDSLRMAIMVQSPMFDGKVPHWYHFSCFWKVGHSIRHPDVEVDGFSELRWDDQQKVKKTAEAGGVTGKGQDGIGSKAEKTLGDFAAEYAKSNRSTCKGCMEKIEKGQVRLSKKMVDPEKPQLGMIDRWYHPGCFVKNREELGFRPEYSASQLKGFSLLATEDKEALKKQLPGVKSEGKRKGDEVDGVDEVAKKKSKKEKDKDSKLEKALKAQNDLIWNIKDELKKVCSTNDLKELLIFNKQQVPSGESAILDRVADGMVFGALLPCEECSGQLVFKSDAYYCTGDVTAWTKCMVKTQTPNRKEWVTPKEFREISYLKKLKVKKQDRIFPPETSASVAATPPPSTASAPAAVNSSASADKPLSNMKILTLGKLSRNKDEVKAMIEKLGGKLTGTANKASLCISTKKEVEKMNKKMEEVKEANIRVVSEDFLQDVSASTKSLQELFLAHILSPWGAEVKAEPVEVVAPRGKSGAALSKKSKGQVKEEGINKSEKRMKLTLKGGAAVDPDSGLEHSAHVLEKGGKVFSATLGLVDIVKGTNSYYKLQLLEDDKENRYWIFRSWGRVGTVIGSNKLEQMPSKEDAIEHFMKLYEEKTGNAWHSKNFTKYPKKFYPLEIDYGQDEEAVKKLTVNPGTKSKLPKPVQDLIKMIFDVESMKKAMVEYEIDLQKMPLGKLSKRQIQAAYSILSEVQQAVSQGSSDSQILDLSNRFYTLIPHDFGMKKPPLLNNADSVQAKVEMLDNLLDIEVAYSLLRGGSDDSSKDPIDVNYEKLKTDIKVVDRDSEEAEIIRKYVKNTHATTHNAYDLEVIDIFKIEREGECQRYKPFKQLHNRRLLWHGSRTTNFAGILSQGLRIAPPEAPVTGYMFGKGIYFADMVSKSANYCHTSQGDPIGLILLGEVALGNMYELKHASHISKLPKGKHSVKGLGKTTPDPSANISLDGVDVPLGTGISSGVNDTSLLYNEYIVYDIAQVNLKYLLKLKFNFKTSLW

The test system of a further assay is MDA-MB-436 cells. The assay can be described thus: Cell proliferation assay (MDA-MB-436). It counts as cell-based. Particulars: 7 days.
Assay [3] has as its target T1, PARP1. As to the kind of experiment: PARP trapping assay in U2OS cells. It counts as cell-based. More on the design: endogenous in cells; host or cells: U2OS. Particulars: U2OS cells, MMS, 4 hrs; read-out: PARP Trapping (U2OS). In outline: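 U2OS cells co-treated with compounds and MMS for 4 h, then soluble proteins extracted with 0.5% Triton X-100, MeOH-fixed and immunostained for PARP1. Chromatin-bound PARP1 quantified as AF488 intensity per DAPI-segmented nucleus; potencies reported as letter-code bins.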
Target sequence in this assay (P09874 whole entry): as the sequence (P09874 whole entry, species assumed) above

The test system of another assay is A2780 cells. The assay can be described thus: Cell proliferation assay (A2780). Particulars: Homo sapiens, 168 h, 7 days. It counts as cell-based.

Consider `O=C(NC(C(=O)N1CCC(OC2CCN(CC(=O)N3CCN(C(=O)c4cc(Cc5n[nH]c(=O)c6ccccc56)ccc4F)CC3)CC2)CC1)C1CCCCC1)c1cccc(C2CCCN(C(=O)CNCc3ccc(F)cc3F)C2)c1` (centres unmarked) [Compound I-369], for which the IC50 is 100 to 1000 nM with HCC1806 cells (Homo sapiens, 168 h); 10 to 100 nM in assay [1] (Homo sapiens); less than 1 nM at PARP1 [2]; less than 10 nM with MDA-MB-436 cells (Homo sapiens, 168 h); 100 to 1000 nM at PARP1 [3]; 10 to 100 nM in the assay with A2780 cells.

For the molecule `CCc1cccc(-c2cnc(C(=O)N3CCC(CN4CCN(CC(=O)N5CCN(C(=O)c6cc(Cc7n[nH]c(=O)c8ccccc78)ccc6F)CC5)CC4)CC3)c(N)c2)c1` [Compound I-366], the IC50 with HCC1806 cells (Homo sapiens, 168 h) is 100 to 1000 nM; in assay [1] (Homo sapiens) it was 100 to 1000 nM; at PARP1 [2], less than 1 nM; with MDA-MB-436 cells (Homo sapiens, 168 h), 100 to 1000 nM; on PARP1 [3] it was 100 to 1000 nM; with A2780 cells it was 100 to 1000 nM.

`CCc1cccc(-c2cnc(C(=O)NCCOCCNCC(=O)N3CCN(C(=O)c4cc(Cc5n[nH]c(=O)c6ccccc56)ccc4F)CC3)c(NC(C)=O)c2)c1` [Compound I-403]: the IC50 in the assay with HCC1806 cells (Homo sapiens, 168 h) is 10 to 100 nM; in assay [1] (Homo sapiens), 10 to 100 nM; on PARP1 [2] it was less than 1 nM; with MDA-MB-436 cells (Homo sapiens, 168 h), less than 10 nM; on PARP1 [3], 100 to 1000 nM; with A2780 cells, 10 to 100 nM.

`CCc1cccc(-c2cc(F)c(C(=O)N3CCC(CN4CCN(CC(=O)N5CCN(C(=O)c6cc(Cc7n[nH]c(=O)c8ccccc78)ccc6F)CC5)CC4)CC3)c(F)c2)c1` [Compound I-410]: the IC50 in the assay on HCC1806 cells (Homo sapiens, 168 h) is 10 to 100 nM; in assay [1] (Homo sapiens) it was 10 to 100 nM; on PARP1 [2], less than 1 nM; with MDA-MB-436 cells (Homo sapiens, 168 h), less than 10 nM; on PARP1 [3] it was 10 to 100 nM; in the assay on A2780 cells, 10 to 100 nM.

In the case of `CCc1cccc(-c2cnc(C(=O)NCCOCCNCC(=O)N3CCN(C(=O)c4cc(Cc5n[nH]c(=O)c6ccccc56)ccc4F)CC3)c(NC(=O)CNCc3cccc(C)c3)c2)c1` [Compound I-63], the IC50 with HCC1806 cells (Homo sapiens, 168 h) is 100 to 1000 nM; in assay [1] (Homo sapiens) it was 100 to 1000 nM; at PARP1 [2], less than 1 nM; with MDA-MB-436 cells (Homo sapiens, 168 h), 100 to 1000 nM; on PARP1 [3], 100 to 1000 nM; in the assay with A2780 cells, 10 to 100 nM.

Consider `CC(C)(C)OC(=O)N[C@@H](C(=O)N1CCC(OC2CCN(CC(=O)N3CCN(C(=O)c4cc(Cc5n[nH]c(=O)c6ccccc56)ccc4F)CC3)CC2)CC1)C1CCCCC1` [Compound I-787], for which the IC50 in the assay on HCC1806 cells (Homo sapiens, 168 h) was 10 to 100 nM; in assay [1] (Homo sapiens), 10 to 100 nM; at PARP1 [2], less than 1 nM; in the assay with MDA-MB-436 cells (Homo sapiens, 168 h), less than 10 nM; at PARP1 [3], 10 to 100 nM; in the assay on A2780 cells, 10 to 100 nM.

In the case of `CCOc1cc(OC)ccc1CNCC(=O)N1CCCC(c2cccc(C(=O)N[C@@H](C(=O)N3CCN(CC4CCN(CC(=O)N5CCN(C(=O)c6cc(Cc7n[nH]c(=O)c8ccccc78)ccc6F)CC5)CC4)CC3)C3CCCCC3)c2)C1` (some centres unmarked) [Compound I-28], the IC50 is 100 to 1000 nM with HCC1806 cells (Homo sapiens, 168 h); 100 to 1000 nM in assay [1] (Homo sapiens); less than 1 nM at PARP1 [2]; 10 to 100 nM with MDA-MB-436 cells (Homo sapiens, 168 h); 100 to 1000 nM on PARP1 [3]; 1000 to 10000 nM with A2780 cells.

With `CCOc1cc(OC)ccc1CNCC(=O)N1CCCC(c2cccc(C(=O)N[C@@H](C(=O)N3CCN(CC45CCC(C(=O)N6CCN(C(=O)c7cc(Cc8n[nH]c(=O)c9ccccc89)ccc7F)CC6)(CC4)CO5)CC3)C3CCCCC3)c2)C1` (some centres unmarked) [Compound I-166], the IC50 with HCC1806 cells (Homo sapiens, 168 h) is less than 10 nM; in assay [1] (Homo sapiens), 100 to 1000 nM; at PARP1 [2] it was less than 1 nM; with MDA-MB-436 cells (Homo sapiens, 168 h), 10 to 100 nM; on PARP1 [3] it was 10 to 100 nM.

Consider `COC12CCC(CNCC(=O)N3CCCC(c4cccc(C(=O)N[C@@H](C(=O)N5CCC(CN6CCN(CC(=O)N7CCN(C(=O)c8cc(Cc9n[nH]c(=O)c%10ccccc9%10)ccc8F)CC7)CC6)CC5)C5CCCCC5)c4)C3)(CC1)OC2` (some centres unmarked) [Compound I-165], for which the IC50 with HCC1806 cells (Homo sapiens, 168 h) is less than 10 nM; in assay [1] (Homo sapiens) it was 100 to 1000 nM; on PARP1 [2], less than 1 nM; in the assay on MDA-MB-436 cells (Homo sapiens, 168 h) it was 10 to 100 nM; on PARP1 [3] it was 100 to 1000 nM.

On to `O=C(N[C@@H](C(=O)N1CCC(OC2CCN(CC(=O)N3CCN(C(=O)c4cc(Cc5n[nH]c(=O)c6ccccc56)ccc4F)CC3)CC2)CC1)C1CCCCC1)c1cccc(C2CCCN(C(=O)C3CC3)C2)c1F` (some centres unmarked) [Compound I-457], for which the IC50 with HCC1806 cells (Homo sapiens, 168 h) was 10 to 100 nM; in assay [1] (Homo sapiens) it was 100 to 1000 nM; at PARP1 [2], less than 1 nM; in the assay with MDA-MB-436 cells (Homo sapiens, 168 h), less than 10 nM; at PARP1 [3], 10 to 100 nM; in the assay with A2780 cells, 10 to 100 nM.

As to `Cc1sc(CN2CCCC2c2nnc3n2CCCCC3)nc1C12CC(C(=O)NCCOCCOCCNCC(=O)N3CCN(C(=O)c4cc(Cc5cccc6c(=O)[nH]ncc56)ccc4F)CC3)(C1)C2` (centres unmarked) [Compound I-193], the IC50 in the assay with HCC1806 cells was less than 10 nM; in assay [1], 100 to 1000 nM; at PARP1 [2], less than 1 nM; with MDA-MB-436 cells it was 100 to 1000 nM; on PARP1 [3], greater than 10000 nM.

Regarding `CCc1cccc(-c2cnc(C(=O)N3CCC(CN4CCN(CC(=O)N5CCN(C(=O)c6cc(Cc7n[nH]c(=O)c8ccccc78)ccc6F)CC5)CC4)CC3)c(NC(C)=O)c2)c1` [Compound I-367], the IC50 in the assay on HCC1806 cells (Homo sapiens, 168 h) is 100 to 1000 nM; in assay [1] (Homo sapiens) it was 100 to 1000 nM; at PARP1 [2] it was less than 1 nM; with MDA-MB-436 cells (Homo sapiens, 168 h) it was 100 to 1000 nM; at PARP1 [3], 100 to 1000 nM; with A2780 cells, 100 to 1000 nM.

Regarding `Cc1sc(CN2CCCC2c2nnc3n2CCCCC3)nc1C12CC(C(=O)NCCOCCOCCOCCOCCNCC(=O)N3CCN(C(=O)c4cc(Cc5n[nH]c(=O)c6ccccc56)ccc4F)CC3)(C1)C2` (centres unmarked) [Compound I-195], the IC50 was less than 10 nM in the assay on HCC1806 cells (Homo sapiens, 168 h); 10 to 100 nM in assay [1] (Homo sapiens); less than 1 nM at PARP1 [2]; 100 to 1000 nM with MDA-MB-436 cells (Homo sapiens, 168 h); 1000 to 10000 nM on PARP1 [3].

Consider `CCOc1cc(OC)ccc1CNCC(=O)N1CCC[C@H](c2cccc(C(=O)N[C@@H](C(=O)N3CCN(CC4CCN(CC(=O)N5CCN(C(=O)c6cc(Cc7n[nH]c(=O)c8ccccc78)ccc6F)CC5)CC4)CC3)C3CCCCC3)c2)C1` [Compound I-167], for which the IC50 in the assay with HCC1806 cells (Homo sapiens, 168 h) was less than 10 nM; in assay [1] (Homo sapiens) it was 100 to 1000 nM; at PARP1 [2], less than 1 nM; with MDA-MB-436 cells (Homo sapiens, 168 h), 100 to 1000 nM; at PARP1 [3], 10 to 100 nM.

Take `Cc1sc(CN2CCCC2c2nnc3n2CCCCC3)nc1C12CC(C(=O)NCCOCCOCCOCCNCC(=O)N3CCN(C(=O)c4cc(Cc5n[nH]c(=O)c6ccccc56)ccc4F)CC3)(C1)C2` (centres unmarked) [Compound I-194]: the IC50 with HCC1806 cells (Homo sapiens, 168 h) is less than 10 nM; in assay [1] (Homo sapiens) it was 100 to 1000 nM; at PARP1 [2], less than 1 nM; with MDA-MB-436 cells (Homo sapiens, 168 h), 100 to 1000 nM; at PARP1 [3], greater than 10000 nM.

For `O=C(N[C@@H](C(=O)N1CCN(CC2CCN(CC(=O)N3CCN(C(=O)c4cc(Cc5n[nH]c(=O)c6ccccc56)ccc4F)CC3)CC2)CC1)C1CCCCC1)c1cccc(C2CCCN(C(=O)C3CC3)C2)c1` (some centres unmarked) [Compound I-962], the IC50 with HCC1806 cells (Homo sapiens, 168 h) is 100 to 1000 nM; in assay [1] (Homo sapiens) it was 10 to 100 nM; at PARP1 [2], less than 1 nM; with MDA-MB-436 cells (Homo sapiens, 168 h) it was 10 to 100 nM; on PARP1 [3] it was 100 to 1000 nM; with A2780 cells it was 100 to 1000 nM.

For `CCOc1cc(OC)ccc1CNCC(=O)N1CCCC(c2cccc(C(=O)N[C@@H](C(=O)N3CCC(OC4CCN(CC(=O)N5CCN(C(=O)c6cc(Cc7n[nH]c(=O)c8ccccc78)ccc6F)CC5)CC4)CC3)C3CCCCC3)c2)C1` (some centres unmarked) [Compound I-173], the IC50 with HCC1806 cells (Homo sapiens, 168 h) was less than 10 nM; in assay [1] (Homo sapiens) it was 100 to 1000 nM; at PARP1 [2] it was less than 1 nM; in the assay on MDA-MB-436 cells (Homo sapiens, 168 h) it was 10 to 100 nM; on PARP1 [3], 10 to 100 nM.
